Measurements reported in patent US12459951B2, “Compounds that interact with RAS superfamily proteins for treatment of cancers, inflammatory diseases, rasopathies, and fibrotic disease” (SHY Therapeutics, LLC, priority 2022, dated 2025).
Like-named read-outs stand apart in the source and are kept apart here.

Legend:
[1] = system: MiaPaca-2 (expressing KRAS G12C mutant); assay: Proliferation Assay (Cell Viability Assay); assay type: cell-based; conditions: Homo sapiens, MIA PaCa-2
How it was run: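 After 2–4 days' exposure at 37 °C, 5% CO2 to a single 10 μM final concentration or a dilution series (IC50), percent proliferation inhibition was derived from CellTiter 96 Aqueous One viability readings. The medium contained 0.3% DMSO and 10% FBS. KRAS G12C MiaPaca-2 cells were plated at 2000–5000/well the day before.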

[2] = system: KRas wild type; assay: Ras GTP Binding Domain Inhibition Assay (Ras Superfamily Assay); conditions: for KRas wild type + SOS: % inh.: with SOS; for KRas wild type: % inh.: without SOS
How it was run: (§1)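 His-tagged GTPases immobilised on nickel-coated plates, pre-incubated with compound (20 μM single point, or serial dilution for IC50) 3 h at room temperature, with or without 10-30 μg/mL Sos (residues 556-1049) in the final hour. Bound Cy3- or Cy5-GTP (100 nM, 45 min) measured by fluorescence after washing.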

[3] = system: KRas G12D mutant; assay: as above; conditions: for KRas G12D mutant + SOS: % inh.: with SOS; for KRas G12D mutant: % inh.: without SOS
How it was run: as §1

[4] = biological target: T1, Rac-1 (Homo sapiens, UniProt P63000); assay: as above; conditions: read-out: Rac-1: % inh.
T1 construct: made in house
How it was run: as §1

[5] = read-out: Proliferation in MiaPaca-2: IC50

IC50 ([1]; Proliferation assay, MiaPaca-2, read-out: MiaPaca-2 IC50 (nM) Pancreatic) [nM]	IC50 [1, 5] [nM]	KRas wild type + SOS: % inh. ([2]; at 20 μM)	KRas wild type: % inh. ([2]; at 20 μM)	KRas G12D mutant + SOS: % inh. ([3]; at 20 μM)	KRas G12D mutant: % inh. ([3]; at 20 μM)	inhibition at 20 µM [4] [%]	KRas wild type + SOS: % inh. ([2]; 20 μM compound)	KRas wild type: % inh. ([2]; 20 μM compound)	KRas G12D mutant + SOS: % inh. ([3]; 20 μM compound)	KRas G12D mutant: % inh. ([3]; 20 μM compound)	SMILES
1 to 10	< 150	B (B = 26-49% inhibition)	C (C = 50-75% inhibition)	C (C = 50-75% inhibition)	C (C = 50-75% inhibition)	50 to 75					COc1cc(Nc2nc(-c3nccn3C)nn3cc(-c4ccn(C)n4)c(C)c23)ncc1C [Compound 235, N-(4-Methoxy-5-methylpyridin-2-yl)-5-methyl-2-(1-methyl-1H-imidazol-2-yl)-6-(1-methyl-1H-pyrazol-3-yl)pyrrolo[2,1-f][1,2,4]triazin-4-amine]
	> 1000	B (B = 26-49% inhibition)	B (B = 26-49% inhibition)	B (B = 26-49% inhibition)	B (B = 26-49% inhibition)	26 to 49					CO[C@H]1CC[C@@H](Nc2nc(-c3nccn3C)nn3cc(-c4ccncc4)c(-c4ccccc4)c23)C1 (racemic) [Compound 200, rac N-((1R,3S)-3-Methoxycyclopentyl)-2-(1-methyl-1H-imidazol-2-yl)-5-phenyl-6-(pyridin-4-yl)pyrrolo[2,1-f][1,2,4]triazin-4-amine]
	< 150	B (B = 26-49% inhibition)	B (B = 26-49% inhibition)	C (C = 50-75% inhibition)	C (C = 50-75% inhibition)	76 to 100					Cc1c(-c2ccn(C)n2)cn2nc(-c3nccn3C)nc(Nc3ccc(OC(F)F)cn3)c12 [Compound 231, N-(5-(Difluorometh-oxy)pyridin-2-yl)-5-methyl-2-(1-methyl-1H-imidazol-2-yl)-6-(1-methyl-1H-pyrazol-3-yl)pyrrolo[2,1-f][1,2,4]triazin-4-amine]
	> 1000	A (A = 1-25% inhibition)	A (A = 1-25% inhibition)	A (A = 1-25% inhibition)	B (B = 26-49% inhibition)	1 to 25					COc1ccc(N(C)c2nc(-c3nccn3C)nn3cc(-c4ccn(C)n4)c(C)c23)nc1 [Compound 225, N-(5-Methoxypyridin-2-yl)-N,5-dimethyl-2-(1-methyl-1H-imidazol-2-yl)-6-(1-methyl-1H-pyrazol-3-yl)pyrrolo[2,1-f][1,2,4]triazin-4-amine]
	> 1000	B (B = 26-49% inhibition)	A (A = 1-25% inhibition)	B (B = 26-49% inhibition)	B (B = 26-49% inhibition)	26 to 49					CO[C@@H]1C[C@H]1Nc1nc(-c2nccn2C)nn2cc(-c3cccnc3)c(-c3ccccc3)c12 (racemic) [Compound 190, N-((1R,2R)-2-Methoxycyclopropyl)-2-(1-methyl-1H-imidazol-2-yl)-5-phenyl-6-(pyridin-3-yl)pyrrolo[2,1-f][1,2,4]triazin-4-amine]
	< 150	D (D = 76-100% inhibition)	D (D = 76-100% inhibition)	D (D = 76-100% inhibition)	D (D = 76-100% inhibition)	76 to 100					COc1ccc(Nc2nc(-c3nccn3C)nn3cc(-c4ccn(C)n4)c(C)c23)nc1 [Compound 224, N-(5-Methoxypyridin-2-yl)-5-methyl-2-(1-methyl-1H-imidazol-2-yl)-6-(1-methyl-1H-pyrazol-3-yl)pyrrolo[2,1-f][1,2,4]triazin-4-amine]
	> 1000	A (A = 1-25% inhibition)	B (B = 26-49% inhibition)	A (A = 1-25% inhibition)	B (B = 26-49% inhibition)	26 to 49					COc1ccnc(Oc2nc(-c3nccn3C)nn3cc(-c4ccn(C)n4)c(C)c23)c1 [Compound 220, 4-((4-Methoxypyridin-2-yl)oxy)-5-methyl-2-(1-methyl-1H-imidazol-2-yl)-6-(1-methyl-1H-pyrazol-3-yl)pyrrolo[2,1-f][1,2,4]triazine]
	> 1000					0	A (A = 1-25% inhibition)	A (A = 1-25% inhibition)	0 (0 = 0% inhibition)	A (A = 1-25% inhibition)	COc1cccc(-c2cn3nc(-c4nccn4C)nc(O)c3c2C)c1Cl [Compound 15, 6-(2-Chloro-3-methoxyphenyl)-5-methyl-2-(1-methyl-1H-imidazol-2-yl)pyrrolo[2,1-f][1,2,4]triazin-4-ol]
	510 to 1000	0 (0 = 0% inhibition)	0 (0 = 0% inhibition)	0 (0 = 0% inhibition)	0 (0 = 0% inhibition)	1 to 25					CO[C@H]1C[C@H](Nc2nc(-c3nccn3C)nn3cc(-c4ccccc4)c(-c4ccccc4)c23)C1 [Compound 203, N-((1r,3r)-3-Methoxycyclobutyl)-2-(1-methyl-1H-imidazol-2-yl)-5,6-diphenylpyrrolo[2,1-f][1,2,4]triazin-4-amine]
	> 1000	0 (0 = 0% inhibition)	B (B = 26-49% inhibition)	A (A = 1-25% inhibition)	B (B = 26-49% inhibition)	26 to 49					COc1ccnc(N(C)c2nc(-c3nccn3C)nn3cc(-c4ccn(C)n4)c(C)c23)c1 [Compound 223, N-(4-Methoxypyridin-2-yl)-N,5-dimethyl-2-(1-methyl-1H-imidazol-2-yl)-6-(1-methyl-1H-pyrazol-3-yl)pyrrolo[2,1-f][1,2,4]triazin-4-amine]
	< 150	D (D = 76-100% inhibition)	D (D = 76-100% inhibition)	D (D = 76-100% inhibition)	D (D = 76-100% inhibition)	76 to 100					Cc1c(-c2ccn(C)n2)cn2nc(-c3nccn3C)nc(Nc3ccc(C(F)(F)F)cn3)c12 [Compound 233, 5-Methyl-2-(1-methyl-1H-imidazol-2-yl)-6-(1-methyl-1H-pyrazol-3-yl)-N-(5-(trifluoromethyl)pyridin-2-yl)pyrrolo[2,1-f][1,2,4]triazin-4-amine]
	> 1000	B (B = 26-49% inhibition)	A (A = 1-25% inhibition)	B (B = 26-49% inhibition)	B (B = 26-49% inhibition)	26 to 49					CO[C@H]1C[C@H](Nc2nc(-c3nccn3C)nn3cc(-c4ccncc4)c(-c4ccccc4)c23)C1 [Compound 199, N-((1r,3r)-3-Methoxycyclobutyl)-2-(1-methyl-1H-imidazol-2-yl)-5-phenyl-6-(pyridin-4-yl)pyrrolo[2,1-f][1,2,4]triazin-4-amine]
	> 1000	A (A = 1-25% inhibition)	A (A = 1-25% inhibition)	A (A = 1-25% inhibition)	A (A = 1-25% inhibition)	1 to 25					CO[C@H]1CC[C@@H](Nc2nc(-c3nccn3C)nn3cc(-c4cccnc4)c(-c4ccccc4)c23)C1 (racemic) [Compound 193, rac N-((1R,3S)-3-Methoxycyclopentyl)-2-(1-methyl-1H-imidazol-2-yl)-5-phenyl-6-(pyridin-3-yl)pyrrolo[2,1-f][1,2,4]triazin-4-amine]
	150 to 500					0	0 (0 = 0% inhibition)	A (A = 1-25% inhibition)	0 (0 = 0% inhibition)	A (A = 1-25% inhibition)	COc1cc(Nc2nc(-c3ccccn3)nn3cc(-c4ccn(C(C)C)n4)c(C)c23)ncn1 [Compound 13, 6-(1-Isopropyl-1H-pyrazol-3-yl)-N-(6-methoxypyrimidin-4-yl)-5-methyl-2-(pyridin-2-yl)pyrrolo[2,1-f][1,2,4]triazin-4-amine]
	> 1000	D (D = 76-100% inhibition)	C (C = 50-75% inhibition)	C (C = 50-75% inhibition)	C (C = 50-75% inhibition)	50 to 75					Cc1c(-c2ccn(C)n2)cn2nc(-c3nccn3C)nc(N)c12 [Compound 211, 5-Methyl-2-(1-methyl-1H-imidazol-2-yl)-6-(1-methyl-1H-pyrazol-3-yl)pyrrolo[2,1-f][1,2,4]triazin-4-amine]
	510 to 1000	0 (0 = 0% inhibition)	A (A = 1-25% inhibition)	0 (0 = 0% inhibition)	A (A = 1-25% inhibition)	1 to 25					COc1cccc(-c2cn3nc(-c4nccn4C)nc(N[C@H]4C[C@H](OC)C4)c3c2-c2ccccc2)c1OC [Compound 219, 6-(2,3-Dimethoxyphenyl)-N-((1r,3r)-3-methoxycyclobutyl)-2-(1-methyl-1H-imidazol-2-yl)-5-phenylpyrrolo[2,1-f][1,2,4]triazin-4-amine]
